Results as given in patent publication US20260315451A1, “MEDICINE FOR TREATING CANCER” (SCIENCE TECHNOLOGY INTERACT CO., LTD., priority 2022, published 2026).

Assays:
Format in all cases: cell-based, human
HeLa cells = experiment: Cell viability of HeLa cells with siRNA of control, BRCA1 or RAD51 (drug sensitivity test, Presto Blue; Example 1); details: siRNA of BRCA1 or RAD51, drug added 24 h later, 96 h culture, FIG. 1B/1C
Procedure: HeLa cells (human cervical cancer cell line) were purchased from ATCC (Manassas, VA, USA). HeLa cells were cultured in DMEM medium (Nissui Pharmaceutical Co., Ltd., Tokyo, Japan) supplemented with 8% Fetal Bovine Serum (FBS) (Biowest Inc., Nuaille, France) and 3% L-glutamine at 37° C. in the presence of 5% CO2.
(§1) A stock solution of Nicaraven was prepared by dissolving Nicaraven in DMEM medium at a final concentration of 40 mM and sterilizing the solution through a filter. Olaparib (Adooq Bioscience, Irvine, CA, USA) was prepared as a stock solution of Olaparib in DMSO (FUJIFILM Wako Pure Chemical Corporation, Osaka, Japan) at a final concentration of 50 mM. […]
HeLa cell suspension adjusted to 5000 cells/ml was seeded in a 96 well plate at 100 μl/well, and the next day, siRNA was introduced, followed by addition of Olaparib or Nicaraven. One hundred twenty hours after gene introduction and Olaparib addition, Hela cells were replaced in a medium to which Presto Blue assay (Thermo-Fisher Scientific, Waltham, MA, USA) had been added so as to have a final concentration of 5%, followed by reaction in the presence of 5% CO2 at 37° C. for 1 hour, and then fluorescence was measured under conditions of an excitation wavelength of 520 nm and a fluorescence wavelength of 580 to 640 nm using GloMax (registered trademark) Explorer Multimode Microplate Reader (Promega, Madison, WI, USA). […]

[1] = tested on: homologous recombination activity in HeLa cells; experiment: Homologous recombination activity (ASHRA, knock-in efficiency by quantitative PCR; Example 2); details: control cells and cells with BRCA1 and RAD51 expression suppressed; 48 h culture with drug; FIG. 2B
Excerpt: FIG. 5 illustrates an outline of a method for measuring homologous recombination repair (HR) activity (Assay for site-specific HR activity (ASHRA)) performed in Examples. In this method, a CRISPR/Cas9 system used for genome editing as a site-specific DNA cleaving enzyme is used to create a site-specific DNA double strand break in a target endogenous gene. Then, a fusion gene of a reporter and a target gene is generated by HR between a DNA fragment as a substrate for HR containing the reporter and the target endogenous gene. The production efficiency of the fusion gene of a reporter and a target gene is quantified as the HR repair activity of cell in the cell. For the method for detecting a fusion gene, flow cytometry, Western blotting, quantitative PCR, or the like can be used while changing the reporter. Step 1: Introduce Cas9/guide RNA expression vector and donor vector into cells. […] Step 4: Detecting knock-in efficiency of marker ((1) Western blotting, (2) flow cytometry, (3) quantitative PCR). […]
HeLa cells were seeded on a 3.5 cm dish, and the next day, siRNA was introduced. […] Genome quantitative PCR was performed using Go Taq qPCR master mix (Promega, Madison, WI, USA), measurement was done using CFX96 Touch Real-time PCR detection system (BioRad, Hercules, CA, USA), and knock-in efficiency was calculated by ΔΔCt method. […]

[2] = tested on: γ-H2AX, a marker of DNA double-strand break, in HeLa cells; experiment: γ-H2AX intranuclear foci after X-ray irradiation (DNA double-strand break repair, immunostaining; Example 3); details: drug 30 min before 1.5 Gy X-ray, 24 h after irradiation, FIG. 3
Procedure: After cell seeding, Nicaraven was added. After 30 minutes, the cells were irradiated with 1.5 Gy of X-ray, and after 2 hours and 24 hours, the cells were fixed and immunostained with an anti-γ-H2AX antibody.
Cells in which five or more γ-H2AX intranuclear foci were observed were counted, and the ratio was calculated and represented in a graph. Respective cells in which less than 5, 5 or more and less than 10, 10 or more and less than 20, and 20 or more γ-H2AX intranuclear foci were observed were counted, and the ratio was calculated and represented in a graph (FIG. 3D).

KYSE270 cells = experiment: Cell viability of KYSE270 esophageal cancer cells with siRNA of control or RAD51 (Example 5); details: siRNA of RAD51, drug added 24 h later, 5 days culture, FIG. 6B
Procedure: KYSE270 cells and KYSE30 cells (human esophageal squamous cell carcinoma cell line) were purchased from JCRB Cell Bank, National Institutes of Biomedical Innovation, Health and Nutrition (Osaka, Japan). KYSE270 cells and KYSE30 cells were cultured in a medium in which RPMI1640 and Ham's F12 medium (both of which were manufactured by FUJIFILM Wako Pure Chemical Corporation, Osaka, Japan) were mixed in equal amounts and 5% FBS was added at 37° C. in the presence of 5% CO2.
as §1
FIG. 6A. Protocol of an experiment in which cell viability under Olaparib, Nicaraven or Edaravone treatment on cells having reduced homologous recombination activity was analyzed. siRNA of control or RAD51 was introduced into esophageal cancer cells KYSE270 cells, and 24 hours later, either Olaparib or Nicaraven was added. After 5 days of culture, cell viability was measured.

KYSE30 cells = experiment: Cell viability of KYSE30 esophageal cancer cells with siRNA of RAD51 (Example 5); details: siRNA of RAD51, drug added 24 h later, compared with the control, FIG. 7

SMILES: CC(CNC(=O)c1cccnc1)NC(=O)c1cccnc1 (centres unmarked) [Nicaraven]
- cell viability when expression of BRCA1 and RAD51 was suppressed (HeLa cells): cell viability further decreased
- homologous recombination activity [1]: did not affect the homologous recombination ability
- DNA damage remaining (γ-H2AX intranuclear foci), RAD51-suppressed versus control ([2]; RAD51 expression suppressed): DNA damage remained more remarkably in the state in which the expression of RAD51 was suppressed
- DNA damage remaining (γ-H2AX intranuclear foci), control and RAD51-suppressed cells ([2]; control and RAD51-suppressed): caused DNA damage to remain in both the control and the state in which the expression of RAD51 was suppressed
- cell viability when expression of RAD51 is suppressed (KYSE270 cells): cell viability further decreased
- cell viability in cells in which expression of RAD51 was suppressed (KYSE30 cells): cell viability decreased in cells in which expression of RAD51 was suppressed, as compared with the control

SMILES: O=C(c1cc(Cc2n[nH]c(=O)c3ccccc23)ccc1F)N1CCN(C(=O)C2CC2)CC1 [Olaparib, reference compound]
- cell viability when expression of BRCA1 and RAD51 was suppressed (HeLa cells): decreased cell viability in cells in which expression of BRCA1 and RAD51 was suppressed, as compared with the control
- cell viability when expression of RAD51 is suppressed (KYSE270 cells): decreased cell viability in cells in which expression of RAD51 was suppressed, as compared with the control
